Measured values taken from ChEMBL document CHEMBL3826915, “Design and comparative anticonvulsant activity assessment of CNS-active alkyl-carbamoyl imidazole derivatives” (Bioorg Med Chem, 2016).
Activity calls are given as the source filed them. The calls are words filed in the database; no cut-off is given here.

Experiments:
Mus musculus [1] = assay: Anticonvulsant activity in albino CF1 mouse assessed as protection against maximal electroshock-induced seizures at 100 mg/kg, ip after 0.5 hrs; format: functional, organism-based
Mus musculus [2] = assay: Anticonvulsant activity in albino CF1 mouse assessed as protection against maximal electroshock-induced seizures at 300 mg/kg, ip after 0.5 hrs; format: functional, organism-based
Mus musculus [3] = assay: Anticonvulsant activity in albino CF1 mouse assessed as protection against maximal electroshock-induced seizures at 30 mg/kg, ip after 2 hrs; format: functional, organism-based
Mus musculus [4] = assay: Anticonvulsant activity in albino CF1 mouse assessed as protection against 32 mA current-induced seizure at 30 mg/kg, ip after 0.5 hrs by 6 Hz psychomotor test; format: functional, organism-based
Mus musculus [5] = assay: Anticonvulsant activity in albino CF1 mouse assessed as protection against 32 mA current-induced seizure at 100 mg/kg, ip after 0.5 hrs by 6 Hz psychomotor test; format: functional, organism-based
Mus musculus [6] = assay: Anticonvulsant activity in albino CF1 mouse assessed as protection against 32 mA current-induced seizure at 300 mg/kg, ip after 0.5 hrs by 6 Hz psychomotor test; format: functional, organism-based
Mus musculus [7] = assay: Anticonvulsant activity in albino CF1 mouse assessed as protection against 32 mA current-induced seizure at 30 mg/kg, ip after 2 hrs by 6 Hz psychomotor test; format: functional, organism-based
Mus musculus [8] = assay: Anticonvulsant activity in albino CF1 mouse assessed as protection against 32 mA current-induced seizure at 100 mg/kg, ip after 2 hrs by 6 Hz psychomotor test; format: functional, organism-based
Mus musculus [9] = assay: Anticonvulsant activity in albino CF1 mouse assessed as protection against 32 mA current-induced seizure at 300 mg/kg, ip after 2 hrs by 6 Hz psychomotor test; format: functional, organism-based
Mus musculus [10] = assay: Anticonvulsant activity in albino CF1 mouse assessed as protection against 44 mA current-induced seizure at 50 mg/kg, ip after 0.25 hrs by 6 Hz psychomotor test; format: functional, organism-based
Mus musculus [11] = assay: Neurotoxicity in albino CF1 mouse assessed as behavioral impairment at 30 mg/kg, ip after 0.5 hrs by rotorod test; format: toxicity, organism-based; settings: in vivo
Mus musculus [12] = assay: Neurotoxicity in albino CF1 mouse assessed as behavioral impairment at 300 mg/kg, ip after 0.5 hrs by rotorod test; format: toxicity, organism-based; settings: in vivo
Mus musculus [13] = assay: Neurotoxicity in albino CF1 mouse assessed as behavioral impairment at 30 mg/kg, ip after 2 hrs by rotorod test; format: toxicity, organism-based; settings: in vivo
Mus musculus [14] = assay: Neurotoxicity in albino CF1 mouse assessed as behavioral impairment at 300 mg/kg, ip after 2 hrs by rotorod test; format: toxicity, organism-based; settings: in vivo
Mus musculus [15] = assay: Neurotoxicity in albino CF1 mouse assessed as behavioral impairment at 50 mg/kg, ip after 0.25 hrs by rotorod test; format: toxicity, organism-based; settings: in vivo
Mus musculus [16] = assay: Neurotoxicity in albino CF1 mouse assessed as behavioral impairment at 50 mg/kg, ip after 1 hr by rotorod test; format: toxicity, organism-based; settings: in vivo
Mus musculus [17] = assay: Neurotoxicity in albino CF1 mouse assessed as behavioral impairment at 50 mg/kg, ip after 2 hrs by rotorod test; format: toxicity, organism-based; settings: in vivo
Rattus norvegicus [18] = assay: Anticonvulsant activity in albino Sprague-Dawley rat assessed as protection against maximal electroshock-induced seizures at 30 mg/kg, ip after 0.25 hrs; format: functional, organism-based
Rattus norvegicus [19] = assay: Anticonvulsant activity in albino Sprague-Dawley rat assessed as protection against maximal electroshock-induced seizures at 30 mg/kg, ip after 0.5 hrs; format: functional, organism-based
Rattus norvegicus [20] = assay: Anticonvulsant activity in albino Sprague-Dawley rat assessed as protection against maximal electroshock-induced seizures at 30 mg/kg, po after 0.5 hrs; format: functional, organism-based
Rattus norvegicus [21] = assay: Anticonvulsant activity in albino Sprague-Dawley rat assessed as protection against maximal electroshock-induced seizures at 30 mg/kg, po after 1 hr; format: functional, organism-based
Rattus norvegicus [22] = assay: Anticonvulsant activity in albino Sprague-Dawley rat assessed as protection against maximal electroshock-induced seizures at 30 mg/kg, ip after 2 hrs; format: functional, organism-based
Rattus norvegicus [23] = assay: Anticonvulsant activity in albino Sprague-Dawley rat assessed as protection against maximal electroshock-induced seizures at 30 mg/kg, po after 2 hrs; format: functional, organism-based
Rattus norvegicus [24] = assay: Neurotoxicity in albino Sprague-Dawley rat assessed as behavioral impairment at 30 mg/kg, ip after 0.25 hrs by rotorod test; format: toxicity, organism-based; settings: in vivo
Rattus norvegicus [25] = assay: Neurotoxicity in albino Sprague-Dawley rat assessed as behavioral impairment at 30 mg/kg, po after 0.25 hrs by rotorod test; format: toxicity, organism-based; settings: in vivo
Rattus norvegicus [26] = assay: Neurotoxicity in albino Sprague-Dawley rat assessed as behavioral impairment at 30 mg/kg, ip after 0.5 hrs by rotorod test; format: toxicity, organism-based; settings: in vivo
Rattus norvegicus [27] = assay: Neurotoxicity in albino Sprague-Dawley rat assessed as behavioral impairment at 30 mg/kg, po after 0.5 hrs by rotorod test; format: toxicity, organism-based; settings: in vivo
Rattus norvegicus [28] = assay: Neurotoxicity in albino Sprague-Dawley rat assessed as behavioral impairment at 30 mg/kg, ip after 1 hr by rotorod test; format: toxicity, organism-based; settings: in vivo
Rattus norvegicus [29] = assay: Neurotoxicity in albino Sprague-Dawley rat assessed as behavioral impairment at 30 mg/kg, po after 1 hr by rotorod test; format: toxicity, organism-based; settings: in vivo
Rattus norvegicus [30] = assay: Neurotoxicity in albino Sprague-Dawley rat assessed as behavioral impairment at 30 mg/kg, ip after 2 hrs by rotorod test; format: toxicity, organism-based; settings: in vivo
Rattus norvegicus [31] = assay: Neurotoxicity in albino Sprague-Dawley rat assessed as behavioral impairment at 30 mg/kg, po after 2 hrs by rotorod test; format: toxicity, organism-based; settings: in vivo
Rattus norvegicus [32] = assay: Anticonvulsant activity in ip dosed albino Sprague-Dawley rat assessed as protection against maximal electroshock-induced seizures; format: functional
Rattus norvegicus [33] = assay: Anticonvulsant activity in ip dosed albino Sprague-Dawley rat assessed as protection against maximal electroshock-induced seizures by measuring time to peak effect; format: functional
[34] = Protective index, ratio of TD50 for neurotoxicity in ip dosed albino Sprague-Dawley rat to ED50 for anticonvulsant activity in ip dosed maximal electroshock-induced seizure albino Sprague-Dawley rat model; format: toxicity, organism-based; settings: in vivo, read-out: Ratio TD50/ED50
Rattus norvegicus [35] = assay: Anticonvulsant activity in ip dosed albino Sprague-Dawley rat assessed as protection against subcutaneous metrazol-induced seizures; format: functional
[36] = Protective index, ratio of TD50 for neurotoxicity in ip dosed albino Sprague-Dawley rat to ED50 for anticonvulsant activity in ip dosed subcutaneous metrazol-induced seizure albino Sprague-Dawley rat model; format: toxicity, organism-based; settings: in vivo, read-out: Ratio TD50/ED50
[37] = Neurotoxicity in ip dosed albino Sprague-Dawley rat assessed as motor impairment by rotorod test; format: toxicity, organism-based; settings: in vivo
Rattus norvegicus [38] = assay: Anticonvulsant activity in ip dosed albino Sprague-Dawley rat assessed as protection against subcutaneous metrazol-induced seizures by measuring time to peak effect; format: functional
Mus musculus [39] = assay: Anticonvulsant activity in ip dosed albino CF1 mouse assessed as protection against maximal electroshock-induced seizures; format: functional
[40] = Protective index, ratio of TD50 for neurotoxicity in ip dosed albino CF1 mouse to ED50 for anticonvulsant activity in ip dosed maximal electroshock-induced seizure albino CF1 mouse model; format: toxicity, organism-based; settings: in vivo, read-out: Ratio TD50/ED50
Mus musculus [41] = assay: Anticonvulsant activity in ip dosed albino CF1 mouse assessed as protection against subcutaneous metrazol-induced seizures; format: functional
[42] = Protective index, ratio of TD50 for neurotoxicity in ip dosed albino CF1 mouse to ED50 for anticonvulsant activity in ip dosed […] metrazol-induced seizure albino CF1 mouse model; format: toxicity, organism-based; settings: in vivo, read-out: Ratio TD50/ED50
Mus musculus [43] = assay: Anticonvulsant activity in ip dosed albino CF1 mouse assessed as protection against maximal electroshock-induced seizures by measuring time to peak effect; format: functional
Mus musculus [44] = assay: Anticonvulsant activity in ip dosed albino CF1 mouse assessed as protection against subcutaneous metrazol-induced seizures by measuring time to peak effect; format: functional
Mus musculus [45] = assay: Anticonvulsant activity in ip dosed albino CF1 mouse assessed as protection against 6 Hz current-induced seizures by psychomotor test; format: functional
Mus musculus [46] = assay: Anticonvulsant activity in ip dosed albino CF1 mouse assessed as protection against 6 Hz current-induced seizure by measuring time to peak effect; format: functional
[47] = Protective index, ratio of TD50 for neurotoxicity in ip dosed albino CF1 mouse to ED50 for anticonvulsant activity in ip dosed 6 Hz current-induced seizure albino CF1 mouse model; settings: in vivo
[48] = Neurotoxicity in ip dosed albino CF1 mouse assessed as motor impairment by rotorod test; format: toxicity, organism-based; settings: in vivo
Mus musculus [49] = assay: Anticonvulsant activity in albino CF1 mouse assessed as protection against maximal electroshock-induced seizures at 30 mg/kg, ip after 0.5 hrs; format: functional, organism-based
Mus musculus [50] = assay: Anticonvulsant activity in albino CF1 mouse assessed as protection against maximal electroshock-induced seizures at 100 mg/kg, ip after 2 hrs; format: functional, organism-based
Mus musculus [51] = assay: Anticonvulsant activity in albino CF1 mouse assessed as protection against 44 mA current-induced seizure at 100 mg/kg, ip after 0.25 hrs by 6 Hz psychomotor test; format: functional, organism-based
Mus musculus [52] = assay: Neurotoxicity in albino CF1 mouse assessed as behavioral impairment at 100 mg/kg, ip after 2 hrs by rotorod test; format: toxicity, organism-based; settings: in vivo
Mus musculus [53] = assay: Neurotoxicity in albino CF1 mouse assessed as behavioral impairment at 100 mg/kg, ip after 0.25 hrs by rotorod test; format: toxicity, organism-based; settings: in vivo
Mus musculus [54] = assay: Neurotoxicity in albino CF1 mouse assessed as behavioral impairment at 100 mg/kg, ip after 1 hr by rotorod test; format: toxicity, organism-based; settings: in vivo
Rattus norvegicus [55] = assay: Anticonvulsant activity in albino Sprague-Dawley rat assessed as protection against maximal electroshock-induced seizures at 30 mg/kg, ip after 1 hr; format: functional, organism-based

Question: Which results are given for CCCC(CCC)COC(=O)NCCCn1ccnc1?
Answer: Activity (Mus musculus [1]): Active; Activity (Mus musculus [2]): Active; Activity (Mus musculus [3]): inactive; Activity (Mus musculus [4]): inactive; Activity (Mus musculus [5]): Active; Activity (Mus musculus [6]): Active; Activity (Mus musculus [7]): inactive; Activity (Mus musculus [8]): Active; Activity (Mus musculus [9]): Active; Activity (Mus musculus [10]): inactive; Activity (Mus musculus [11]): Non-toxic; Activity (Mus musculus [12]): Toxic; Activity (Mus musculus [13]): Non-toxic; Activity (Mus musculus [14]): Toxic; Activity (Mus musculus [15]): Non-toxic; Activity (Mus musculus [16]): Non-toxic; Activity (Mus musculus [17]): Non-toxic; Activity (Rattus norvegicus [18]): Active; Activity (Rattus norvegicus [19]): Active; Activity (Rattus norvegicus [20]): inactive; Activity (Rattus norvegicus [21]): inactive; Activity (Rattus norvegicus [22]): inactive; Activity (Rattus norvegicus [23]): inactive; Activity (Rattus norvegicus [24]): Non-toxic; Activity (Rattus norvegicus [25]): Non-toxic; Activity (Rattus norvegicus [26]): Non-toxic; Activity (Rattus norvegicus [27]): Non-toxic; Activity (Rattus norvegicus [28]): Non-toxic; Activity (Rattus norvegicus [29]): Non-toxic; Activity (Rattus norvegicus [30]): Non-toxic; Activity (Rattus norvegicus [31]): Non-toxic; ED50 (Rattus norvegicus [32]): 12 mg/kg; Time (Rattus norvegicus [33]): 0.25 h; selectivity ratio [34]: 7.3; ED50 (Rattus norvegicus [35]): > 88 mg/kg; selectivity ratio [36]: 1; TD50 [37]: 87 mg/kg; Time (Rattus norvegicus [38]): 0.25 h; ED50 (Mus musculus [39]): 18 mg/kg; selectivity ratio [40]: 3.3; ED50 (Mus musculus [41]): > 70 mg/kg; selectivity ratio [42]: 0.9; Time (Mus musculus [43]): 0.5 h; Time (Mus musculus [44]): 0.5 h; ED50 (Mus musculus [45]): 32 mg/kg; Time (Mus musculus [46]): 0.5 h; selectivity ratio [47]: 2; TD50 [48]: 65 mg/kg

Question: What does the source list for CCCC(CC)OC(=O)NCCCn1ccnc1 (stereo not drawn)?
Answer: Activity (Mus musculus [1]): Active; Activity (Mus musculus [49]): Active; Activity (Mus musculus [50]): Active; Activity (Mus musculus [6]): Active; Activity (Mus musculus [7]): inactive; Activity (Mus musculus [51]): Active; Activity (Mus musculus [11]): Non-toxic; Activity (Mus musculus [12]): Toxic; Activity (Mus musculus [13]): Non-toxic; Activity (Mus musculus [52]): Non-toxic; Activity (Mus musculus [14]): Toxic; Activity (Mus musculus [53]): Toxic; Activity (Mus musculus [54]): Non-toxic; Activity (Rattus norvegicus [18]): Active; Activity (Rattus norvegicus [19]): Active; Activity (Rattus norvegicus [20]): inactive; Activity (Rattus norvegicus [55]): Active; Activity (Rattus norvegicus [21]): inactive; Activity (Rattus norvegicus [22]): Active; Activity (Rattus norvegicus [23]): inactive; Activity (Rattus norvegicus [24]): Non-toxic; Activity (Rattus norvegicus [25]): Non-toxic; Activity (Rattus norvegicus [26]): Non-toxic; Activity (Rattus norvegicus [27]): Non-toxic; Activity (Rattus norvegicus [28]): Non-toxic; Activity (Rattus norvegicus [29]): Non-toxic; Activity (Rattus norvegicus [30]): Non-toxic; Activity (Rattus norvegicus [31]): Non-toxic; ED50 (Rattus norvegicus [32]): 17 mg/kg; Time (Rattus norvegicus [33]): 0.25 h; selectivity ratio [34]: 5.4; ED50 (Rattus norvegicus [35]): > 92 mg/kg; selectivity ratio [36]: 1; TD50 [37]: 92 mg/kg; Time (Rattus norvegicus [38]): 0.25 h; ED50 (Mus musculus [39]): 28 mg/kg; selectivity ratio [40]: 3.1; ED50 (Mus musculus [41]): > 50 mg/kg; selectivity ratio [42]: 1.7; Time (Mus musculus [43]): 0.5 h; Time (Mus musculus [44]): 0.5 h; ED50 (Mus musculus [45]): 135 mg/kg; Time (Mus musculus [46]): 0.5 h; selectivity ratio [47]: 0.64; TD50 [48]: 86 mg/kg
